Patent US7728131B2, “Amide derivative and medicine” (Nippon Shinyaku Co., Ltd., priority 2003, dated 2010)
pIC50: −log10 of the molar value. Like-named read-outs stand apart in the source and are kept apart here.

How the values were obtained:
[1] = test system: K562 cells; assay: Cell growth inhibitory effect, K562 cells (Cell counting Kit-8, 72 hours); details: for IC50: Homo sapiens, K562, 72 h, read-out: K562 cells (IC50 value: μM); for Ratio (U937 cells/K562 cells): IC50 U937 cells / IC50 K562 cells;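 on all read-outs here: Read-out is formazan absorbance at 450 nm from WST-8 reduction after a 3 h color reaction, with K562 and U937 cells grown in 96-well plates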
Procedure: of Cell counting Kit-8 (5 mmol/l WST-8, 0.2 mmol/1 1-Methoxy PMS, 150 mmol/l NaCl) (manufactured by Dojindo) was added to each well. After reaction for color development in a CO2 incubator for 3 hours, an absorbance of formazan, generated by reduction of WST-8 was determined at 450 nm using Multi-level counter ARVOsx (manufactured by Wallac).
K562 cells and U937 cells (purchased from American Type Culture Collection) were cultured in a RPMI-1640 medium (manufactured by Sigma) containing 10% (v/v) fetal calf serum (FCS) (manufactures by Sigma) (RPMI-1640/FCS). K562 cells and U937 cells were seeded at a density of 5000 cells/100 μl/well and 4000 cells/100 μl/well in each of 96-hole-plate (manufactured by costar), respectively. The plate was incubated in a CO2 incubator overnight. […] The resulting solution was diluted 500 times in a RPMI-1640/FCS medium and then 100 μl of the diluent was added in a well. The plate was incubated in a CO2 incubator. After 72 hours, 20 μl

[2] = test system: U937 cells; assay: Cell growth inhibitory effect, U937 cells (Cell counting Kit-8, 72 hours); type: cell-based; details: Homo sapiens, U-937, BCR-ABL negative U937 cells, WST-8 absorbance; for pIC50: continuation of Table 3, read-out: U937 cells (IC50 value: nμM)
Procedure: The plate was incubated in a CO2 incubator overnight. […] The plate was incubated in a CO2 incubator. After 72 hours, 20 μl

Structure (SMILES) | IC50 [1] [µM] | Ratio (U937 cells/K562 cells) [1] | melting point | IC50 ([2]; read-out: U937 cells (IC50 value: μM)) [µM] | pIC50 [2]
CCN1CCN(Cc2ccc(C(=O)Nc3ccc(C)c(Nc4nccc(-c5cncc(Br)c5)n4)c3)cc2C(F)(F)F)CC1.Cl [Example 18, 4-(4-ethylpiperazin-1-ylmethyl)-3-trifluoromethyl-N-{3-[4-(5-bromopyridin-3-yl)pyrimidin-2-ylamino]-4-methylphenyl}benzamide hydrochloride] | 0.0048 | 958 | 166 to 172 °C (dec.) | 4.6 | –
Cc1ccc(NC(=O)c2ccc(CN3CCN(C)CC3)c(Cl)c2)cc1Nc1nccc(-c2cncnc2)n1.Cl [Example 20, 3-chloro-4-(4-methylpiperazin-1-ylmethyl)-N-{4-methyl-3-[4-(5-pyrimidinyl)pyrimidin-2-ylamino]phenyl}benzamide hydrochloride] | 0.0026 | 11154 | 197 to 200 °C | – | 4.54
Cc1ccc(NC(=O)c2ccc(CN3CCN(C)CC3)c(C(F)(F)F)c2)cc1Nc1cc(-c2cncnc2)ccn1.Cl [Example 23, 4-(4-methylpiperazin-1-ylmethyl)-3-trifluoromethyl-N-{4-methyl-3-[4-(5-primidinyl)pyridin-2-ylamino]phenyl}benzamide hydrochloride] | 0.0011 | 4545 | 203 to 206 °C (dec.) | – | 5.30
CCN1CCN(Cc2ccc(C(=O)Nc3ccc(C)c(Nc4cc(-c5cncnc5)ccn4)c3)cc2C(F)(F)F)CC1.Cl [Example 25, 4-(4-ethylpiperazin-1-ylmethyl)-3-trifluoromethyl-N-{4-methyl-3-[4-(5-pyrimidinyl)pyridin-2-ylamino]phenyl}benzamide hydrochloride] | 0.0018 | 2111 | 254 to 256 °C (dec.) | – | 5.42
CCN1CCN(Cc2ccc(C(=O)Nc3ccc(C)c(Nc4cc(-c5cccnc5)ccn4)c3)cc2C(F)(F)F)CC1.Cl [Example 27, 4-(4-ethylpiperazin-1-ylmethyl)-3-trifluoromethyl-N-{4-methyl-3-[4-(3-pyridyl)pyridin-2-ylamino]phenyl}benzamide hydrochloride] | 0.0025 | 1040 | 230 to 235 °C (dec.) | – | 5.59
Cc1ccc(NC(=O)c2ccc(CN3CCN(C)CC3)c(C(F)(F)F)c2)cc1Nc1cc(-c2cccnc2)ncn1.Cl [Example 31, 4-(1-methylpiperazin-4-ylmethyl)-3-trifluoromethyl-N-{4-methyl-3-[6-(3-pyridyl)pyrimidin-4-ylamino]phenyl}benzamide hydrochloride] | 0.0069 | 304 | 190 to 194 °C (dec.) | – | 5.68
Cc1ccc(NC(=O)c2ccc(CN3CCN(C)CC3)c(C(F)(F)F)c2)cc1Nc1cc(-c2cncnc2)ncn1.Cl [Example 33, 4-(1-methylpiperazin-4-ylmethyl)-3-trifluoromethyl-N-{4-methyl-3-[6-(5-pyrimidinyl)pyrimidin-4-ylamino]phenyl}benzamide hydrochloride] | 0.0084 | 1310 | 203 to 207 °C (dec.) | – | 4.96
Cc1ccc(NC(=O)c2ccc(CN3CCN(CCF)CC3)c(C(F)(F)F)c2)cc1Nc1nccc(-c2cncnc2)n1.Cl [Example 35, 4-[4-(2-fluoroethyl)piperazin-1-ylmethyl]-3-trifluoromethyl-N-{4-methyl-3-[4-(5 yrimidinyl)pyrimidin-2-ylamino]phenyl}benzamide hydrochloride] | 0.0034 | 3235 | 213 to 233 °C (dec.) | – | 4.96
Cc1ccc(NC(=O)c2ccc(CN3CCN(CCO)CC3)c(C(F)(F)F)c2)cc1Nc1nccc(-c2cncnc2)n1.Cl [Example 37, 4-[4-(2-hydroxyethyl)piperazin-1-ylmethyl]-3-trifluoromethyl-N-{4-methyl-3-[4-(5-pyrimidinyl)pyrimidin-2-ylamino]phenyl}benzamide hydrochloride] | 0.0014 | 7143 | 248 to 255 °C (dec.) | – | 5.00
Cc1ccc(NC(=O)c2ccc(CN3CCNCC3)c(C(F)(F)F)c2)cc1Nc1nccc(-c2cncc(Br)c2)n1.Cl [Example 40, 4-(1-piperazinylmethyl)-3-trifluoromethyl-N-{3-[4-(5-bromopyridin-3-yl)pyrimidin-2-ylamino]-4-methylphenyl}benzamide hydrochloride] | 0.0039 | 1128 | 176 to 182 °C (dec.) | – | 5.36
Cc1ccc(NC(=O)c2ccc(CN3CCNCC3)c(C(F)(F)F)c2)cc1Nc1cc(-c2cccnc2)ccn1.Cl [Example 42, 4-(1-piperazinylmethyl)-3-trifluoromethyl-N-{4-methyl-3-[4-(3-pyridyl)pyridin-2-ylamino]phenyl}benzamide hydrochloride] | 0.0068 | 206 | 190 to 195 °C (dec.) | – | 5.85
Cc1ccc(NC(=O)c2ccc(CN3CCNC(C(N)=O)C3)c(C(F)(F)F)c2)cc1Nc1nccc(-c2cncnc2)n1.Cl (centres unmarked) [Example 45, 4-(3-carbamoylpiperazin-1-ylmethyl)-3-trifluoromethyl-N-{4-methyl-3-[4-(5-pyrimidinyl)pyrimidin-2-ylamino]phenyl}benzamide hydrochloride] | 0.0031 | 4839 | 205 to 208 °C | – | 4.82
Cc1ccc(NC(=O)c2ccc(CN3CCN(C)C(C(N)=O)C3)c(C(F)(F)F)c2)cc1Nc1nccc(-c2cncnc2)n1.Cl (centres unmarked) [Example 50, 4-(3-carbamoyl-4-methylpiperazin-1-ylmethyl)-3-trifluoromethyl-N-{4-methyl-3-[4-(5-pyrimidinyl)pyrimidin-2-ylamino]phenyl}benzamide hydrochloride] | 0.0046 | 3478 | 203 to 208 °C | – | 4.80
Cc1ccc(NC(=O)c2ccc(CN3CC(CN(C)C)C3)c(C(F)(F)F)c2)cc1Nc1nccc(-c2cncnc2)n1.Cl [Example 54, 4-[3-(dimethylaminomethyl)azetidin-1-ylmethyl]-3-trifluoromethyl-N-{4-methyl-3-[4-(5-pyrimidinyl)pyrimidin-2-ylamino]phenyl}benzamide hydrochloride] | 0.0096 | 1667 | 142 to 152 °C (dec.) | – | 4.80
Cc1ccc(NC(=O)c2ccc(CN3CCN[C@H](C)C3)c(C(F)(F)F)c2)cc1Nc1nccc(-c2cncnc2)n1.Cl [Example 56, (+)-4-((R)-3-methylpiperazin-1-ylmethyl)-3-trifluoromethyl-N-{4-methyl-3-[4-(5-pyrimidinyl)pyrimidin-2-ylamino]phenyl}benzamide hydrochloride] | 0.0046 | 957 | 254 to 258 °C | – | 5.36
CCN(CC)[C@H]1CCN(Cc2ccc(C(=O)Nc3ccc(C)c(Nc4nccc(-c5cncnc5)n4)c3)cc2C(F)(F)F)C1.Cl [Example 57, (−)-4-[(S)-3-(N,N-diethylamino)pyrrolidin-1-ylmethyl]-3-trifluoromethyl-N-{4-methyl-3-[4-(5-pyrimidinyl)pyrimidin-2-ylamino]phenyl}benzamide hydrochloride] | 0.0058 | 966 | 200 to 202 °C | – | 5.25
Cc1ccc(NC(=O)c2ccc(CN3CC[C@H](N4CCCC4)C3)c(C(F)(F)F)c2)cc1Nc1nccc(-c2cncnc2)n1.Cl [Example 58, (−)-4-[(S)-3-(1-pyrrolidinyl)pyrrolidin-1-ylmethyl]-3-trifluoromethyl-N-{4-methyl-3-[4-(5-pyrimidinyl)pyrimidin-2-ylamino]phenyl}benzamide hydrochloride] | 0.0047 | 2000 | 168 to 171 °C | – | 5.03
Cc1ccc(NC(=O)c2ccc(CN3C[C@@H](N(C)C)C[C@H]3C)c(C(F)(F)F)c2)cc1Nc1nccc(-c2cncnc2)n1.Cl [Example 60, (−)-4-[(2R,4S)-4-(dimethylamino)-2-methylpyrrolidin-1-ylmethyl]-3-trifluoromethyl-N-{4-methyl-3-[4-(5-pyrimidinyl)pyrimidin-2-ylamino]phenyl}benzamide hydrochloride] | 0.005 | 800 | 188 to 193 °C | – | 5.40
Cc1ccc(NC(=O)c2ccc(CN3CCC[C@H](N)C3)c(C(F)(F)F)c2)cc1Nc1nccc(-c2cncnc2)n1.Cl [Example 62, (+)-4-((S)-3-aminopiperidinomethyl)-3-trifluoromethyl-N-{4-methyl-3-[4-(5-pyrimidinyl)pyrimidin-2-ylamino]phenyl}benzamide hydrochloride] | 0.0014 | 1143 | 193 to 199 °C | – | 5.80
Cc1ccc(NC(=O)c2ccc(CN3CCC[C@H](N(C)C)C3)c(C(F)(F)F)c2)cc1Nc1nccc(-c2cncnc2)n1.Cl [Example 64, (+)-4-[(S)-3-(dimethylamino)piperidinomethyl]-3-trifluoromethyl-N-{4-methyl-3-[4-(5-pyrimidinyl)pyrimidin-2-ylamino]phenyl}benzamide hydrochloride] | 0.0043 | 860 | 195 to 198 °C | – | 5.43
